Measurements as given in ChEMBL document CHEMBL1201862, “PubChem BioAssay data set” (2004).
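48-hour exposure; five concentrations; linearly interpolated endpoints. Here, GI50 denotes the concentration required for 50% inhibition of growth.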 Calls of active or inactive are those of the source. Rule as the data show it: active = GI50 up to about 1.1 µM and inactive = higher.

Assays:
Assay in all cases: growth of human tumour cells (NCI), 48 h
NCI-H226 = tested on: NCI-H226
MOLT-4 = tested on: MOLT-4
UO-31 = tested on: UO-31
KM-20L2 = tested on: KM-20L2
DMS-273 = tested on: DMS-273
ACHN = tested on: ACHN
CAKI-1 = tested on: CAKI-1
SF-268 = tested on: SF-268
RXF 393 = tested on: RXF 393
SNB-19 = tested on: SNB-19
LOX IMVI = tested on: LOX IMVI
Malme-3M = tested on: Malme-3M
UACC-62 = tested on: UACC-62
OVCAR-8 = tested on: OVCAR-8
HT-29 = tested on: HT-29
COLO 205 = tested on: COLO 205
786-0 = tested on: 786-0
NCI-H460 = tested on: NCI-H460
SNB-78 = tested on: SNB-78
HOP-62 = tested on: HOP-62
M19-MEL = tested on: M19-MEL
HCT-116 = tested on: HCT-116
HCT-15 = tested on: HCT-15
DLD-1 = tested on: DLD-1
XF498 = tested on: XF498
HOP-18 = tested on: HOP-18
EKVX = tested on: EKVX
TK-10 = tested on: TK-10
SW-620 = tested on: SW-620
DMS-114 = tested on: DMS-114
SNB-75 = tested on: SNB-75
SF-539 = tested on: SF-539
OVCAR-3 = tested on: OVCAR-3
A549 = tested on: A549
RPMI-8226 = tested on: RPMI-8226
UACC-257 = tested on: UACC-257
SK-MEL-5 = tested on: SK-MEL-5
HL-60 = tested on: HL-60
NCI-H23 = tested on: NCI-H23
IGROV-1 = tested on: IGROV-1
OVCAR-5 = tested on: OVCAR-5
K562 = tested on: K562
M14 = tested on: M14
SF-295 = tested on: SF-295
SK-MEL-28 = tested on: SK-MEL-28
U-251 = tested on: U-251
SN12C = tested on: SN12C
SK-MEL-2 = tested on: SK-MEL-2
LXFL 529 = tested on: LXFL 529
CCRF-CEM = tested on: CCRF-CEM
HOP-92 = tested on: HOP-92
A498 = tested on: A498
KM12 = tested on: KM12
OVCAR-4 = tested on: OVCAR-4
SR = tested on: SR

In the case of CC(=O)OC1COC(N2C(=O)C(=O)c3c(C)cc(Cl)nc32)C(OC(C)=O)C1OC(C)=O (stereo not given), the GI50 (NCI-H226) is reported as > 100 µM (inactive), the GI50 (MOLT-4) is reported as > 100 µM (inactive) and the GI50 (UO-31) is reported as > 100 µM (inactive). For the same compound, the GI50 (KM-20L2) was > 100 µM (inactive), the GI50 (DMS-273) was > 100 µM (inactive) and the GI50 (ACHN) was > 100 µM (inactive). For the same compound, the GI50 (CAKI-1) was > 100 µM (inactive), the GI50 (SF-268) was > 100 µM (inactive) and the GI50 (RXF 393) was > 100 µM (inactive). For the same compound, the GI50 (SNB-19) was > 100 µM (inactive), the GI50 (LOX IMVI) was > 100 µM (inactive) and the GI50 (Malme-3M) was > 100 µM (inactive). The GI50 (UACC-62) was > 100 µM (inactive), the GI50 (OVCAR-8) was > 100 µM (inactive) and the GI50 (HT-29) was > 100 µM (inactive). For the same compound, the GI50 (COLO 205) was > 100 µM (inactive), the GI50 (786-0) was > 100 µM (inactive) and the GI50 (NCI-H460) was > 100 µM (inactive). The GI50 (SNB-78) was > 100 µM (inactive), the GI50 (HOP-62) was > 100 µM (inactive) and the GI50 (M19-MEL) was > 100 µM (inactive). For the same compound, the GI50 (HCT-116) was > 100 µM (inactive), the GI50 (HCT-15) was > 100 µM and the GI50 (DLD-1) was > 100 µM (inactive). The GI50 (XF498) was > 100 µM (inactive), the GI50 (HOP-18) was > 100 µM (inactive) and the GI50 (EKVX) was > 100 µM (inactive). The GI50 (TK-10) was > 100 µM (inactive), the GI50 (SW-620) was > 100 µM (inactive) and the GI50 (DMS-114) was > 100 µM (inactive). For the same compound, the GI50 (SNB-75) was > 100 µM (inactive), the GI50 (SF-539) was > 100 µM (inactive) and the GI50 (OVCAR-3) was > 100 µM (inactive). The GI50 (A549) was > 100 µM (inactive), the GI50 (RPMI-8226) was > 100 µM (inactive) and the GI50 (UACC-257) was > 100 µM (inactive). For the same compound, the GI50 (SK-MEL-5) was > 100 µM (inactive), the GI50 (HL-60) was > 100 µM (inactive) and the GI50 (NCI-H23) was > 100 µM (inactive). For the same compound, the GI50 (IGROV-1) was > 100 µM (inactive), the GI50 (OVCAR-5) was > 100 µM (inactive) and the GI50 (K562) was > 100 µM (inactive). For the same compound, the GI50 (M14) was > 100 µM (inactive), the GI50 (SF-295) was > 100 µM (inactive) and the GI50 (SK-MEL-28) was > 100 µM (inactive). For the same compound, the GI50 (U-251) was > 100 µM (inactive), the GI50 (SN12C) was > 100 µM (inactive) and the GI50 (SK-MEL-2) was > 100 µM (inactive). The GI50 (LXFL 529) was > 100 µM (inactive), the GI50 (CCRF-CEM) was > 100 µM (inactive) and the GI50 (HOP-92) was > 100 µM (inactive). For the same compound, the GI50 (A498) was > 100 µM (inactive), the GI50 (KM12) was > 100 µM (inactive) and the GI50 (OVCAR-4) was > 100 µM (inactive). The GI50 (SR) was 83.6 µM (inactive).
